How the values were obtained:
[1] = tested on: RAW 264.7 cells; experiment: Whole cell inhibition assay for arginine uptake; format: cell-based, murine; settings: for arginine transport % suppression of induced peak: γIFN+LPS, 8 hours
Method: In the embodiment described in the working example herein, a test population of cells was cultured for about 3 hours so that the cells became firmly adherent. Various concentrations of the potential inhibitors were then added to parallel cultures. One hour later the macrophage stimulators, e.g. including, but not limited to LPS and γIFN, were added. Eighteen hours later the cells were washed in a warm balanced salt solution supplemented with glucose. Carrier-free radiolabelled arginine was added; after 5 minutes, active uptake of arginine was stopped by washing the cell three times with buffer, chilled to 0° C., containing 10 mM unlabeled arginine to displace any externally bound label. The contents of the washed cells are solubilized in 100 μl of formic acid and counted by standard techniques.
RAW 264.7 cells are plated in standard 96-well microculture plates at a concentration of 10^5/well and allowed to adhere for from 2 hours to overnight. The medium is then replaced with medium containing the compound to be tested. One hour later, the medium is supplemented so as to contain 25 U/ml γIFN and 0.1 μg/ml LPS and the cultures incubated a further. The cells are then rinsed twice in HEPES- buffered Krebs salt solution with 0.1% glucose. Carrier-free tetra-^3H-arginine is added to each well (2.5 μCi/well with specific activity of […]) and the active uptake of arginine is allowed to continue for a 5 minute period after which the cells are rapidly cooled to 0° C. by lavage with iced saline containing 10 mM unlabeled arginine to displace any externally bound label. The contents of the washed cells are solubilized in 100 Al of formic acid and counted by standard techniques. In subsequent experiments to determine the acitivity of the inhibitors, incubations were performed for 8 hours.
(§1) This section describes experiments that measure the concentration of Compound No. 14 needed to inhibit arginine uptake and NO output. The techniques employed were described in section 7.1 supra.

[2] = tested on: TNF; experiment: Cytokine production by LPS/γIFN-stimulated human PBMC: TNF; format: cell-based; settings: γIFN+LPS, 18 hr
Description: (§2) Similar results concerning a variety of cytokines in addition to TNF, e.g., IL-6 and Macrophage Inflammatory Proteins-1α and -1β (MIP-1α and MIP-1β) were obtained using human peripheral blood as a source of monocytes. Human peripheral blood mononuclear cells (PBMC) were isolated using “FICOLL®”-based methods and plated in standard 6-well culture plates at a concentration of 10^6/well and allowed to adhere for from 2 hr to overnight whereupon non-adherent cells were washed out and the medium was then replaced with medium containing the compound to be tested. One hour later, the medium was supplemented so as to contain 25 U/ml γIFN and 0.1 μg/ml LPS and the cultures incubated a further 18 hr. The medium was then collected, and cell debris removed by centrifugation. This conditioned supernatant was then assayed for the presence of cytokines using the standard methodologies of L929 cell cytotoxicity bioassay and immunoassay (ELISA).

[3] = tested on: MIP-1α; experiment: Cytokine production by LPS/γIFN-stimulated human PBMC: MIP-1α; format: cell-based; settings: γIFN+LPS, 18 hr
Description: as §2

[4] = tested on: RAW 264.7 cells; experiment: Whole cell inhibition assay for NO (nitrite) output; format: cell-based, murine; settings: for no2/no3 % suppression of induced production: γIFN+LPS, 18 hours
Method: RAW 264.7 cells are plated in microculture wells at 1×10^6/ml in RPMI 1640 with 10% FBS and otherwise standard culture conditions and allowed to adhere for 5 hours. They are then activated with 25 U/ml γIFN and 0.1 μg/ml LPS in the presence of test inhibitors. The urea concentration present in the supernatant media, after 18 hours of culture, is determined by a colorimetric blood urea nitrogen diacetylmonoxime assay performed on an aliquot of the culture supernatant (Sigma Chem. Co., St. Louis, Mo.) and inhibition is expressed as the percentage urea compared to that of a parallel control culture treated identically except that the concentration of added inhibitor is zero.
The production of nitrite is determined by assay of the same tissue culture supernatant by means of a calorimetric assay. Briefly, 4 parts of test solution containing 1% (w/v) sulfanilamide, 0.1% naphthylethylenediamine di-HCl (Griess Reagent), 2.5% H3PO4 and one part media are mixed, incubated for 10 minutes and the absorbance at 560 nm determined. The nitrite concentrations are interpolated from reference curves prepared using NaNO2.
Various concentrations of the test compounds are included in the media of the stimulated RAW 264.7 cells in culture. The concentration of urea and/or nitrite after 18 hours of activated culture is determined and compared to the uninhibited control value obtained from at least one parallel culture. The fractional reduction is calculated for each concentration of inhibitor and the IC50 (concentration giving 50% reduction) is interpolated. Compounds were dissolved in media with mild heat (60° C.). Those with limited solubility were dissolved in base. The concentration of stock solutions of those compounds which were not completely soluble was determined by OD280.
as §1

[5] = tested on: CHO-TNF tumor; experiment: CHO-TNF tumor growth in nude mice; format: in vivo; settings: 0.4 mg/Kg i.p. once daily, two weeks
Method: This section describes in detail the methods and results of an animal model of tumor growth to determine the ability of the compounds of the invention to inhibit tumor growth, and cause regression of tumors. Cells are plated in standard tissue culture flasks in DMEM supplemented with fetal calf serum (10%). Chinese hamster ovary (CHO) cells stably transfected with a mammalian expression vector constitutively secrete human TNF (CHO-TNF). The experiments with the CHO-TNF tumor were performed as follows: on the day of injection into nude mice, cells are harvested and injected intramuscularly (10-15×10^6 cells per animal) into the hindlimb of nu/nu nude mice (20 g body weight). Animals are housed and provided food and water ad libitum. Tumor growth is monitored, and when established tumors are present (during week six) the test compounds are administered daily (0.4 mg/Kg intraperitoneal, once daily). After two weeks the animals are euthanized, the tumor weighed, and measured with a caliper. The CHO-TNF tumor also metastasizes to the skin of these animals; the number of metastases is scored.

[6] = tested on: TNF; experiment: Serum TNF levels after parenteral LPS; format: in vivo, rats; settings: i.p. 2.0 hours prior to LPS; measured 2-3 hours after LPS
Method: Qualitatively similar data has been obtained by measurement of the serum TNF levels in rats stimulated to produce TNF by parenteral LPS administration. Rats were given Compound No. 14, i.p., 2.0 hours prior to LPS stimulation. The serum levels of TNF were measured at between 2 and 3 hours after LPS stimulation.

CC(=NNC(=N)N)c1cc(NC(=O)CCCCCCCCC(=O)Nc2cc(C(C)=NNC(=N)N)cc(C(C)=NNC(=N)N)c2)cc(C(C)=NNC(=N)N)c1.Cl.Cl.Cl.Cl [Compound 14, N,N′-bis(3,5-diacetyl-phenyl)decanediamide tetrakis(amidinohydrazone) tetrahydrochloride]
arginine transport % suppression of induced peak ([1]; dose 2 μM): 9%
arginine transport % suppression of induced peak ([1]; dose 10 μM): 19%
arginine transport % suppression of induced peak ([1]; dose 50 μM): 86%
arginine transport % suppression of induced peak ([1]; dose 200 μM): 100%
IC50 ([1]; exposed prior to stimulation, uptake measured at 8 hours, read-out: I.C.50 for arginine uptake): 7.5 µM
concentration that effectively inhibited production of TNF [2]: 10 to 20 µM
concentration that effectively inhibited production of MIP-1α [3]: 10 to 20 µM
no2/no3 % suppression of induced production ([4]; dose 2 μM): 0%
no2/no3 % suppression of induced production ([4]; dose 10 μM): 69%
no2/no3 % suppression of induced production ([4]; dose 50 μM): 100%
no2/no3 % suppression of induced production ([4]; dose 200 μM): 100%
IC50 ([4]; exposed from 8 hours after stimulation, NO output during hours 12-24, mean±std. err., n=3, read-out: I.C.50 for NO output): 20 ± 2 µM
# of METASTASES (skin) [5]: not present
reduction in tumor size (animals responding) [5]: reduction in tumor size in four out of five animals
# of METASTASES (skin) ([5]; listed as No. 14): 0
TUMOR DIMENSION ([5]; n = 4): 207.99 ± 119.90 mm^2
TUMOR WEIGHT ([5]; n = 4): 1.628 ± 1.07 g
serum TNF level vs untreated controls [6]: about half the level of serum TNF
